Test results: PubChem BioAssay (NCI)
Several values for one entry are separate records, joined by “and”; a condition that tells them apart may be missing. Equal values may be shown once.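 Compound exposure: 48 hours, 5 concentrations, 96-well plates. GI50 marks 50% less growth. Definition used: TGI = concentration required for complete inhibition of growth.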

Assays:
Assay in all cases: NCI tumour cell line growth inhibition, 48 h
[1] = test system: 786-0 renal
[2] = test system: CCRF-CEM leukemia
[3] = test system: HT29 colon
[4] = test system: MALME-3M melanoma
[5] = test system: MCF7 breast
[6] = test system: MOLT-4 leukemia
[7] = test system: RXF 393 renal
[8] = test system: SK-MEL-2 melanoma
[9] = test system: SNB-75 CNS
[10] = test system: U251 CNS
[11] = test system: ACHN renal

Row | SMILES | TGI [1] [µM] | TGI [2] | TGI [3] [µM] | TGI [4] [µM] | TGI [5] [µM] | TGI [6] | TGI [7] | TGI [8] | TGI [9] | TGI [10] [µM] | TGI [11] [µM] | GI50 [3] | GI50 [5] | GI50 [7]
1 | Clc1ccc(C2=NNC(c3cccc(Cl)c3)C2)cc1 (stereo unspecified) | 92.7 | 96.8 µM | > 100 | > 100 | > 100 | > 100 µM | > 100 µM | 5.55 µM | 96.5 µM | 37.5 |  |  |  | 
2 | O=C1CSC(c2cc3cc(Br)ccc3nc2Cl)N1c1ccc(F)c(Cl)c1 (stereo unspecified) | > 50 | > 50 µM | > 50 | > 50 | > 50 | 32.9 µM | > 50 µM | > 50 µM | > 50 µM |  | > 50 |  |  | 
3 | CCCCCC(=O)OCC1(CO)C/C(=C/CC(C(C)C)C(C)C)C(=O)O1 (stereo unspecified) | > 75 | 68.7 µM | > 75 | 65.6 | > 75 |  | > 75 µM | > 75 µM | > 75 µM | > 75 | > 75 |  |  | 
4 | CSC(=N/N=C(\C)c1ccc(S(=O)(=O)N(C)c2ccccc2)cc1)SC | > 100 | > 95.2 µM | > 100 | > 100 | > 100 | > 100 µM | > 100 µM | > 100 µM | > 100 µM | > 100 | > 100 |  |  | 
5 | CN(C)CCSc1nccc(-c2ccc(-c3ccnc(SCCN(C)C)n3)s2)n1 |  | 17.4 µM | 10.3 | 24.2 | 16.9 | 10 µM | 9.99 µM | 29.5 µM | 28.2 µM | 26 |  |  |  | 
6 | CC(=O)OC1COC(n2c(N)c(C#N)c(-c3ccccc3)c(C#N)c2=S)C(OC(C)=O)C1OC(C)=O (stereo unspecified) | > 100 | 67.7 µM and > 100 µM | > 100 | > 100 | > 100 | 54.3 µM and 75.4 µM | 83.1 µM and > 100 µM | > 100 µM and 68.4 µM | 86.8 µM and > 100 µM | > 100 | > 100 |  |  | 
7 | Cc1cc(C)c(N)c(CO)c1 | > 100 | > 100 µM | > 100 | > 100 | > 100 | > 100 µM | > 100 µM | > 100 µM | > 100 µM | > 100 | > 100 | 12.5 µM and 38.2 µM | 7.28 µM and 16 µM | > 100 µM and 32.3 µM
8 | CCOC(=O)c1sc2[n+](c1C)C(=O)/C(=C/c1ccccc1Cl)S2 | 26.1 | > 72.8 µM | 28.9 | 31.5 | 15 | 15 µM | > 68.1 µM | > 74.7 µM | > 54.3 µM | 24.4 | 40 |  |  | 
